The values that follow come from ChEMBL document CHEMBL3137667, “[Drug-induced liver injury; fourteenth updated edition of the bibliographic database of liver injuries and related drugs]” (Gastroenterol Clin Biol, 2004).

Series [1] is described as follows: Highest frequency of moderate liver toxicity observed during clinical trials, expressed as a percentage. [column '% BIOL' in source]. To be noted: human.
Series [2] is described as follows: Highest frequency of acute liver toxicity observed during clinical trials, expressed as a percentage. [column '% AIGUE' in source]. Particulars: human.
A short description of series [3]: Times to onset, minimal and maximal, observed in the indexed observations. [column 'DELAI' in source]. To be noted: human.
For series [4] the following is noted: human, serum.
The conditions of series [5]: human, serum. The source holds these as a separate data set.
For series [6] the following is noted: human.
The conditions of series [7]: human. This is another data set of the same source.
For series [8] the following is noted: human. The source holds these as a separate data set.
For series [9] the following is noted: human, serum, 4383 h.
For series [10] the following is noted: human. The source holds these as a separate data set.
The conditions of series [11]: human. The source holds these as a separate data set.
For series [12] the following is noted: human. This is another data set of the same source.
For series [13] the following is noted: human. This is another data set of the same source.
For series [14] the following is noted: human. The source holds these as a separate data set.
For series [15] the following is noted: human. The source holds these as a separate data set.
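Throughout, for Hepatotoxicity (association with vascular disease): count of indexed literature references reporting vascular liver injury in humans, e.g. peliosis hepatitis, hepatic veno-occlusive disease or Budd-Chiari syndrome.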
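Throughout, for Hepatotoxicity (benign tumour): value is a count of indexed literature references citing a benign tumour confirmed by histopathology.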
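Throughout, for Hepatotoxicity (choleostasis): human cholestatic liver injury, shown by histopathology or by peak ALT or AST elevation over alkaline phosphatase ratio below 2, value counts indexed literature reports.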
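Throughout, for Hepatotoxicity (chronic liver disease): chronic liver injury confirmed by histopathology or persistently raised serum aminotransferase activity beyond 6 months, value given as the count of indexed literature references.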
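Throughout, for Hepatotoxicity (cirrhosis): value is a count of indexed literature references reporting cirrhosis confirmed by histopathology.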
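Throughout, for Hepatotoxicity (cytolytic): human cytolytic liver injury, shown by histopathology or by a ratio above 5 of peak ALT or AST elevation to alkaline phosphatase elevation, value counts indexed references.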
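Throughout, for Hepatotoxicity (granulomatous hepatitis): value is a count of indexed literature references reporting granulomatous liver disease confirmed by histopathology.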
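Throughout, for Hepatotoxicity (malignant tumour): malignant tumour confirmed by histopathology, value gives the count of indexed literature references reporting it.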
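Throughout, for Hepatotoxicity (severe hepatitis): human clinical data: severe hepatitis, meaning potentially life-threatening liver failure or clinically observed cases, the value counts how many indexed literature references report it.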
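Throughout, for Hepatotoxicity (steatosis): steatosis confirmed by histopathology, value is the count of indexed references.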

Turning to `CCCC(C)(COC(N)=O)COC(N)=O` [MEPROBAMATE], the “Hepatotoxicity (moderate)” value in [1] is given as 0%; in [4], 0. Besides, the “Hepatotoxicity (acute)” value in [2] was determined as 0%; in series [5] it was 2. Besides, the “Hepatotoxicity (time to onset)” value in series [3] turned out to be 2 weeks - 6 months. Besides, the “Hepatotoxicity (cytolytic)” value in series [6] is listed as 0. Moreover, the “Hepatotoxicity (choleostasis)” value in series [7] was determined as 1. Besides, in series [8], the “Hepatotoxicity (severe hepatitis)” value came out at 0. Further, the “Hepatotoxicity (chronic liver disease)” value in series [9] was 0. The “Hepatotoxicity (cirrhosis)” value in [10] is 0. The “Hepatotoxicity (granulomatous hepatitis)” value in series [11] was found to be 0. In addition, the “Hepatotoxicity (association with vascular disease)” value in [12] amounted to 0. Further, in series [13], the “Hepatotoxicity (steatosis)” value turned out to be 0. Moreover, in series [14], the “Hepatotoxicity (malignant tumour)” value was determined as 0. Further, the “Hepatotoxicity (benign tumour)” value in [15] came to 0.
In the case of `CC(COc1ccccc1)NN` (stereo not given) [PHENOXYPROPAZINE], the “Hepatotoxicity (moderate)” value in series [1] turned out to be 0%; in series [4], 0. Also, the “Hepatotoxicity (acute)” value in series [2] is 0%; in [5], 3. Besides, the “Hepatotoxicity (time to onset)” value in [3] came out at 1.5 months - 4 months. For the same compound, the “Hepatotoxicity (cytolytic)” value in [6] is given as 3. In series [7], the “Hepatotoxicity (choleostasis)” value is on record as 0. The “Hepatotoxicity (severe hepatitis)” value in series [8] turned out to be 3. The “Hepatotoxicity (chronic liver disease)” value in series [9] turned out to be 0. In series [10], the “Hepatotoxicity (cirrhosis)” value was determined as 0. Further, the “Hepatotoxicity (granulomatous hepatitis)” value in [11] was 0. Further, the “Hepatotoxicity (association with vascular disease)” value in [12] is 0. The “Hepatotoxicity (steatosis)” value in series [13] was determined as 0. Besides, in series [14], the “Hepatotoxicity (malignant tumour)” value came to 0. Besides, the “Hepatotoxicity (benign tumour)” value in series [15] came out at 0.
Turning to `CCC(Cc1c(I)cc(I)c(N)c1I)C(=O)O` (stereo not given) [IOPANOIC ACID], the “Hepatotoxicity (moderate)” value in series [1] is on record as 0%; in [4], 0. Further, the “Hepatotoxicity (acute)” value is reported as 0% in [2] and 1 in [5]. Also, in series [3], the “Hepatotoxicity (time to onset)” value came out at 1 week. In addition, the “Hepatotoxicity (cytolytic)” value in series [6] is given as 1. Besides, the “Hepatotoxicity (choleostasis)” value in [7] was determined as 0. Also, the “Hepatotoxicity (severe hepatitis)” value in series [8] came to 0. The “Hepatotoxicity (chronic liver disease)” value in series [9] is listed as 0. In addition, the “Hepatotoxicity (cirrhosis)” value in series [10] is on record as 0. Further, the “Hepatotoxicity (granulomatous hepatitis)” value in series [11] was 0. For the same compound, the “Hepatotoxicity (association with vascular disease)” value in [12] is listed as 0. Further, the “Hepatotoxicity (steatosis)” value in series [13] worked out at 0. The “Hepatotoxicity (malignant tumour)” value in series [14] is 0. The “Hepatotoxicity (benign tumour)” value in series [15] stood at 0.
As for SERRAPEPTASE, the figures for the “Hepatotoxicity (moderate)” value in series [1] and in series [4] were 0% and 0, respectively. For the same compound, the “Hepatotoxicity (acute)” value is 0% in series [2] and 1 in series [5]. The “Hepatotoxicity (time to onset)” value in [3] worked out at 2 days. Also, the “Hepatotoxicity (cytolytic)” value in series [6] was 0. Further, the “Hepatotoxicity (choleostasis)” value in series [7] is reported as 0. Further, the “Hepatotoxicity (severe hepatitis)” value in series [8] is on record as 0. Further, in [9], the “Hepatotoxicity (chronic liver disease)” value is listed as 0. In addition, in series [10], the “Hepatotoxicity (cirrhosis)” value stood at 0. In series [11], the “Hepatotoxicity (granulomatous hepatitis)” value is recorded as 1. The “Hepatotoxicity (association with vascular disease)” value in series [12] stood at 0. For the same compound, the “Hepatotoxicity (steatosis)” value in series [13] amounted to 0. Moreover, the “Hepatotoxicity (malignant tumour)” value in series [14] is 0. The “Hepatotoxicity (benign tumour)” value in [15] turned out to be 0.
On to COLESTIPOL, for which the “Hepatotoxicity (moderate)” value in [1] is given as 0.8%; in series [4], 1. Also, the “Hepatotoxicity (acute)” value came to 0% in series [2] and 1 in series [5]. Further, in series [3], the “Hepatotoxicity (time to onset)” value was 6 months. In addition, the “Hepatotoxicity (cytolytic)” value in [6] was 1. In addition, the “Hepatotoxicity (choleostasis)” value in series [7] came to 0. Also, the “Hepatotoxicity (severe hepatitis)” value in series [8] turned out to be 0. In [9], the “Hepatotoxicity (chronic liver disease)” value worked out at 0. Further, in series [10], the “Hepatotoxicity (cirrhosis)” value is recorded as 0. Moreover, in series [11], the “Hepatotoxicity (granulomatous hepatitis)” value came to 0. Further, the “Hepatotoxicity (association with vascular disease)” value in series [12] is listed as 0. Moreover, the “Hepatotoxicity (steatosis)” value in series [13] is given as 0. Moreover, the “Hepatotoxicity (malignant tumour)” value in [14] worked out at 0. For the same compound, the “Hepatotoxicity (benign tumour)” value in [15] is reported as 0.
For `CCOC(=O)C(C)(CC)Oc1ccc(Cc2ccc(Cl)cc2)cc1` (stereo not given) [BECLOBRATE], the results for the “Hepatotoxicity (moderate)” value in series [1] and in [4] were 1% and 1, respectively. For the same compound, the “Hepatotoxicity (acute)” value in [2] came to 0%; in [5], 2. The “Hepatotoxicity (time to onset)” value in [3] amounted to 4 months - 6.5 months. Further, the “Hepatotoxicity (cytolytic)” value in series [6] is on record as 1. For the same compound, the “Hepatotoxicity (choleostasis)” value in series [7] amounted to 0. For the same compound, the “Hepatotoxicity (severe hepatitis)” value in [8] turned out to be 2. Further, the “Hepatotoxicity (chronic liver disease)” value in series [9] is given as 0. For the same compound, the “Hepatotoxicity (cirrhosis)” value in series [10] is reported as 0. In series [11], the “Hepatotoxicity (granulomatous hepatitis)” value is 0. Besides, the “Hepatotoxicity (association with vascular disease)” value in series [12] is given as 0. Besides, the “Hepatotoxicity (steatosis)” value in series [13] is 0. The “Hepatotoxicity (malignant tumour)” value in [14] is given as 0. Further, in [15], the “Hepatotoxicity (benign tumour)” value came to 0.
As to `COc1cc(NS(=O)(=O)c2ccc(N)cc2)nc(OC)n1` [SULFADIMETHOXINE], the “Hepatotoxicity (moderate)” value is on record as 0% in series [1] and 0 in [4]. Further, the results for the “Hepatotoxicity (acute)” value in [2] and in [5] were 0% and 2, respectively. The “Hepatotoxicity (time to onset)” value in series [3] was determined as 1 month - 2 months. Moreover, in series [6], the “Hepatotoxicity (cytolytic)” value is 1. Moreover, the “Hepatotoxicity (choleostasis)” value in [7] worked out at 0. In addition, in series [8], the “Hepatotoxicity (severe hepatitis)” value is on record as 0. Further, the “Hepatotoxicity (chronic liver disease)” value in series [9] was found to be 0. Besides, in series [10], the “Hepatotoxicity (cirrhosis)” value was 0. The “Hepatotoxicity (granulomatous hepatitis)” value in series [11] was 1. Further, the “Hepatotoxicity (association with vascular disease)” value in series [12] was 0. In addition, the “Hepatotoxicity (steatosis)” value in series [13] came out at 0. Besides, the “Hepatotoxicity (malignant tumour)” value in series [14] was determined as 0. The “Hepatotoxicity (benign tumour)” value in [15] stood at 0.
On to `S=P(N1CC1)(N1CC1)N1CC1` [THIOTEPA], for which the “Hepatotoxicity (moderate)” value in series [1] is listed as 0%; in series [4] it was 0. In addition, the “Hepatotoxicity (acute)” value in [2] is reported as 5.3%; in series [5] it was 1. The “Hepatotoxicity (time to onset)” value in [3] was 2 weeks. Further, the “Hepatotoxicity (cytolytic)” value in [6] was found to be 1. In series [7], the “Hepatotoxicity (choleostasis)” value was determined as 1. Besides, the “Hepatotoxicity (severe hepatitis)” value in [8] is 2. The “Hepatotoxicity (chronic liver disease)” value in series [9] was found to be 0. Also, in series [10], the “Hepatotoxicity (cirrhosis)” value is given as 0. Moreover, in series [11], the “Hepatotoxicity (granulomatous hepatitis)” value is listed as 0. Further, the “Hepatotoxicity (association with vascular disease)” value in series [12] was found to be 2. In addition, the “Hepatotoxicity (steatosis)” value in series [13] is 0. Also, in series [14], the “Hepatotoxicity (malignant tumour)” value came to 0. The “Hepatotoxicity (benign tumour)” value in series [15] came out at 0.
For IVERMECTIN, the “Hepatotoxicity (moderate)” value in series [1] amounted to 23.3%; in series [4], 5. Also, the results for the “Hepatotoxicity (acute)” value in series [2] and in series [5] were 0% and 0, respectively. Moreover, the “Hepatotoxicity (time to onset)” value in series [3] is 2 days - 1 week. In addition, the “Hepatotoxicity (cytolytic)” value in [6] came out at 0. In addition, in series [7], the “Hepatotoxicity (choleostasis)” value was 0. The “Hepatotoxicity (severe hepatitis)” value in series [8] is 0. The “Hepatotoxicity (chronic liver disease)” value in series [9] is 0. The “Hepatotoxicity (cirrhosis)” value in [10] is reported as 0. The “Hepatotoxicity (granulomatous hepatitis)” value in series [11] turned out to be 0. The “Hepatotoxicity (association with vascular disease)” value in series [12] is 0. Also, in series [13], the “Hepatotoxicity (steatosis)” value was determined as 0. In addition, in series [14], the “Hepatotoxicity (malignant tumour)” value is 0. Further, the “Hepatotoxicity (benign tumour)” value in series [15] worked out at 0.
On to `CCN1CCCC1CNC(=O)c1cc(S(=O)(=O)CC)c(N)cc1OC` (stereo not given) [AMISULPRIDE], for which the entries for the “Hepatotoxicity (moderate)” value in series [1] and in series [4] were 0% and 1, respectively. The “Hepatotoxicity (acute)” value is given as 0% in series [2] and 0 in [5]. In addition, the “Hepatotoxicity (time to onset)” value in series [3] is on record as 2 weeks. For the same compound, the “Hepatotoxicity (cytolytic)” value in series [6] was 0. Moreover, the “Hepatotoxicity (choleostasis)” value in series [7] amounted to 0. Moreover, in [8], the “Hepatotoxicity (severe hepatitis)” value is listed as 0. For the same compound, in series [9], the “Hepatotoxicity (chronic liver disease)” value is recorded as 0. Also, the “Hepatotoxicity (cirrhosis)” value in [10] came to 0. In [11], the “Hepatotoxicity (granulomatous hepatitis)” value came to 0. For the same compound, the “Hepatotoxicity (association with vascular disease)” value in series [12] was 0. Further, in series [13], the “Hepatotoxicity (steatosis)” value amounted to 0. In addition, the “Hepatotoxicity (malignant tumour)” value in series [14] is on record as 0. Moreover, the “Hepatotoxicity (benign tumour)” value in [15] is reported as 0.
On to `Cc1cccc(N2CC(CO)OC2=O)c1` (stereo not given) [TOLOXATONE], for which the “Hepatotoxicity (moderate)” value was determined as 0% in series [1] and 0 in series [4]. Also, the “Hepatotoxicity (acute)” value came to 0% in series [2] and 2 in series [5]. In addition, the “Hepatotoxicity (time to onset)” value in series [3] was found to be 15 days - 10 months. In series [6], the “Hepatotoxicity (cytolytic)” value stood at 2. In series [7], the “Hepatotoxicity (choleostasis)” value was 1. The “Hepatotoxicity (severe hepatitis)” value in series [8] stood at 1. The “Hepatotoxicity (chronic liver disease)” value in [9] amounted to 0. In series [10], the “Hepatotoxicity (cirrhosis)” value is 0. Besides, the “Hepatotoxicity (granulomatous hepatitis)” value in series [11] is given as 0. Also, the “Hepatotoxicity (association with vascular disease)” value in series [12] amounted to 0. Also, the “Hepatotoxicity (steatosis)” value in series [13] was found to be 0. For the same compound, in series [14], the “Hepatotoxicity (malignant tumour)” value stood at 0. The “Hepatotoxicity (benign tumour)” value in series [15] came out at 0.
